The subject of data set [1] is physical dependence in mice. On the set-up: method as in PMID 38005269. To be noted: chronic administration, naloxone-precipitated withdrawal; cited from earlier work.
Data set [2] can be described thus: Metabolism by CYP450 in mouse liver microsomes (NADPH). It is filed as in vitro ADME. To be noted: 3.07 μM, 0.5 mg/mL microsomes, 1 mM NADPH, 37 °C, 120 min. The procedure: The metabolic stability of CycloAnt was then evaluated in mouse liver microsomes. CycloAnt at a final concentration of 3.07 μM was mixed with 0.5 mg/mL liver microsomes in the presence of 1 mM of NADPH and incubated at 37 °C for 2 h. At 0, 5, 15, 30, 60, and 120 min, incubation mixtures were withdrawn and processed. The supernatant was analyzed by LC-MS/MS. The percentage of CycloAnt remaining at each time point was calculated (Figure 3a).
Metabolism by CYP450 in liver microsomes. CycloAnt dissolved in pH 7.2 PBS was diluted to 8 μM. Six hundred microliters of CycloAnt were incubated with 800 μL of 0.975 mg/mL mouse liver microsomes and 160 μL of 10 mM NADPH at 37 °C for 0, 5, 15, 30, 60, and 120 min. The final concentrations of CycloAnt, mouse liver microsomes, and NADPH in the incubation mixture were 3.07 μM, 0.5 mg/mL, and 1 mM, respectively. At the designated time points, 100 μL of the incubation mixture were withdrawn and mixed with 200 μL ice-cold acetonitrile containing internal standard (IS, Tyr-[D-Lys-Phe-Tyr-Gly]), followed by centrifugation at 10,000× g at 4 °C for 10 min. An aliquot of 250 μL of supernatant was collected and dried in vacuum. The dried sample was reconstituted in 100 μL of 20% acetonitrile and stored at −20 °C before analyzed by LC-MS/MS on the next day. The experiment was performed in duplicate.
(Liver microsomes are a subcellular fraction often used to study metabolism.)

Data set [3] deals with respiration in mice. On the set-up: method as in PMID 38005269. The conditions noted are these: high doses up to 15 times the ED50, mice; cited from earlier work.
The nature of data set [4]: Stability in mouse serum. It is filed as in vitro ADME. The conditions noted are these: 37 °C, read-out: percentage of CycloAnt remaining in mouse serum. The procedure:
Proteolytic instability is a major hurdle limiting the development of peptide drug. As blood is a major source of proteases that degrade peptides, we evaluated the stability of CycloAnt in mouse serum. CycloAnt at a final concentration of 20 µM was incubated with mouse serum (SigmaAldrich) at 37 °C for 8 h. At 0, 15, 30, 60, 120, 240, and 480 min, the incubation was terminated by adding 2 volumes of ice-cold acetonitrile to precipitate the proteins in the sample. After centrifugation at 10,000 rpm, supernatant was collected. The processed sample was analyzed by liquid chromatography tandem mass spectrometry (LC-MS/MS). The percentage of CycloAnt remaining at each time point was calculated (Figure 1).
Stability in mouse serum. CycloAnt was dissolved in pH 7.2 phosphate buffer saline (PBS). A total of 175 µL of CycloAnt at a final concentration of 20 µM was mixed with 2.625 mL of 100% mouse serum (SigmaAldrich) and incubated at 37 °C. The mixture was analyzed over a time course of 8 h. At the time points of 0, 15, 30, 60, 120, 240, and 480 min, 150 µL of sample were withdrawal and the reaction was terminated with 300 μL of ice-cold acetonitrile containing internal standard (IS, Tyr-[D-Lys-Phe-Tyr-Gly] at 200 ng/mL). The mixture was centrifuged at 10,000 rpm at 4 °C for 10 min. […] The percentage of peptide remaining at each time point was calculated relative to 0 min. […]

The target in data set [5] is T1, human KOR (Homo sapiens, UniProt P41145).
T1 construct: expressed in transfected cells
Briefly: Opioid receptor radioligand binding assay ([3H]diprenorphine), KOR. Here is the method: (§1) CycloAnt is a lariat peptide that acts in vivo as a bifunctional MOR agonist and DOR antagonist, which was confirmed in our previous study using opioid receptor individually knock-out (OP KO) mice. In the current study, the binding affinities of CycloAnt to the three opioid receptors are determined using cell-based radioligand opioid receptor binding assays. […] At the KOR, CycloAnt at 1 μM inhibits 6% and at 10 μM inhibits 26% of [^3H]diprenorphine binding.
(§2) Opioid receptor radioligand binding assay. Membranes of CHO cells stably expressing the rat MOR, mouse DOR, or human KOR were used in the experiments. [^3H]diprenorphine (PerkinElmer, Waltham, MA, at the time of experiment calculated to have specific activity 35 Ci/mmol) was used as the radioligand for the MOR, DOR, and KOR. Competition inhibition of [^3H]diprenorphine (0.3–0.4 nM) binding to the MOR or DOR was conducted in 50 mM Tris-HCl buffer (pH 7.4) with an adequate number of cell membranes for each receptor and […] of CycloAnt. […] Binding reactions were terminated by rapid filtration under vacuum over GF/B filters presoaked in 0.1% polyethyleneimine, and the bound radioactivity was counted by liquid scintillation counting. […] Binding data were analyzed using GraphPad Prism software (version 10.2.3) and IC50 values (the concentration necessary to inhibit 50 percent of radioligand binding) and Ki values were calculated. […]

Data set [6] addresses T2, mouse DOR (Mus musculus, UniProt P32300).
T2 construct: expressed in transfected cells
The data set can be described thus: Opioid receptor radioligand binding assay ([3H]diprenorphine), DOR. The conditions noted are these: CHO cell membranes, read-out: binding affinity (Ki) at DOR. The procedure:
as §1, §2

Each structure is given as a SMILES string. Where a SMILES comes first, the peptide text is derived from it. Bridges are numbered along the chain shown (N, C = ends). [ ]: non-standard residue; d: D form. 2Abz = Nc1ccccc1C(=O)O; Dap = NC[C@H](N)C(=O)O

Usually share remaining stands for the share of the starting amount still present when the sample was taken. What is called inhibition is the change of the read-out against control, counted positive when it falls. A low value points to a response near the control. The term Ki denotes a measure of affinity in units of concentration, obtained from inhibition or displacement.

T1 sequence (P41145 whole entry): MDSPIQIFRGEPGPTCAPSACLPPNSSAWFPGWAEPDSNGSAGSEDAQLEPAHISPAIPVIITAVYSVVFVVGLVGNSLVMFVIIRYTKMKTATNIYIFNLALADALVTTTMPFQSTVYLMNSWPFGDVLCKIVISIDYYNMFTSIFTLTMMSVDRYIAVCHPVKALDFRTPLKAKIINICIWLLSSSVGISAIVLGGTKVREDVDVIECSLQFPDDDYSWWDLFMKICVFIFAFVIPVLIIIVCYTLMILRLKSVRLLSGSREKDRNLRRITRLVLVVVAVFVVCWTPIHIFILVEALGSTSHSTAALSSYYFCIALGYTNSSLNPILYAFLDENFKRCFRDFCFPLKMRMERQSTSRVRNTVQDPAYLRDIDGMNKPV
T2 sequence (P32300 whole entry): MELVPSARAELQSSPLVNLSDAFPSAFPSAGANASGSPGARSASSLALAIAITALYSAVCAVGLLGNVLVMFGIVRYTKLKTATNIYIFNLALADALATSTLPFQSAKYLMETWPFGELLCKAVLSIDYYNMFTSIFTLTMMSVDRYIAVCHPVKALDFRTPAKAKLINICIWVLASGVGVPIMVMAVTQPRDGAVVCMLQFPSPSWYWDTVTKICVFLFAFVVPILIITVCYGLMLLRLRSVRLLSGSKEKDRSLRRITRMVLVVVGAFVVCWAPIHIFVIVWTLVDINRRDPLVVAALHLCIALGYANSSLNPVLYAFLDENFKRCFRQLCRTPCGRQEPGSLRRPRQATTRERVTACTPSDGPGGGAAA

Take `C[C@@H](O)[C@@H]1NC(=O)[C@H](CNC(=O)c2ccccc2N)NC(=O)[C@H](NC(=O)[C@@H](N)Cc2ccc(O)cc2)CCCCNC(=O)CNC1=O` [CycloAnt] (H-Y[dK][Dap](2Abz)TG; lactam 2-C): the physical dependence result in data set [1] is “significantly reduced physical dependence”. For the same molecule, in data set [2], the “stability in mouse liver microsomes with NADPH (CYP450)” value is “no significant concentration change”. Further, the respiratory depression result in data set [3] is on record as “does not produce any respiratory depression”. In data set [4], the fraction remaining at 8 h, 20 µM was 82.3%. At 1 µM the inhibition in data set [5] (CycloAnt at 1 μM) was 6%. This molecule displayed an inhibition at 10 µM in data set [5] (CycloAnt at 10 μM) of 26%. Further, the Ki in data set [6] was 7.85 ± 0.77 nM.

(Values after PMC11546339, “Conformational Plasticity Enhances the Brain Penetration of a Metabolically Stable, Dual-Functional Opioid-Peptide CycloAnt” (International Journal of Molecular Sciences, 2024).)
